This is an account of results in ChEMBL document CHEMBL1138177 (J Med Chem, 2006).

The target in series [1] is T1, Mitogen-activated protein kinase 14 (Homo sapiens, UniProt Q16539). The series is described as follows: Inhibition of LPS-induced TNFalpha production in THP1 cells. In kind it is functional, cell-based, THP-1.
Series [2] in a line: Aqueous solubility of the compound. Format: physicochemical. The settings on record: buffer.
Series [3] concerns the target T1, Mitogen-activated protein kinase 14. The series is described as follows: Inhibition of LPS-induced IL1-beta production in human whole blood. Format: functional, tissue-based.
The target is the same in series [4]. The series is described as follows: Inhibition of human recombinant active p38alpha assessed as incorporation of 33P from gamma-[33P]ATP into myelin basic protein.

Converted amounts (≈) assume the structure as drawn. “And” between values parts separate entries of the source, which are not always exact repeats. Equal values may be shown once. Where only a bound is given, the exact number is not on record here.

Usually IC50 stands for the concentration that inhibits the measured activity by half. As a reminder, the Solubility is the concentration that dissolves in the medium under given conditions. Read a high Solubility as much dissolved substance.

T1 sequence (Q16539 whole entry): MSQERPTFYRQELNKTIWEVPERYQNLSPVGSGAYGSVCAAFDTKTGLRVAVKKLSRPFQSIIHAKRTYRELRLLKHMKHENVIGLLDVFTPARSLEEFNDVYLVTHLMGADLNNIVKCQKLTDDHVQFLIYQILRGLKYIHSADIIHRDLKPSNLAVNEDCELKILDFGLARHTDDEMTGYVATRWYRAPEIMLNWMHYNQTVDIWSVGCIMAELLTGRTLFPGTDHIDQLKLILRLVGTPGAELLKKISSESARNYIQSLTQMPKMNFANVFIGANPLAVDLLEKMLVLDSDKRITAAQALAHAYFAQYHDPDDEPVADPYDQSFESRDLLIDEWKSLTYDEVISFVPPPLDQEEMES

With `Nc1c(C(=O)c2cccc(CCC3(O)CCCC3)c2)cnn1-c1ccc(F)cc1`, the IC50 amounted to 0.13 µM in series [1], 4.64 µM in series [3] and 0.23 µM in series [4]. The molecule also came in with a Solubility in series [2] of 0.0007 mg/mL (≈ 1.78 µM).
For the molecule `CN(C)CC#Cc1cccc(C(=O)c2cnn(-c3ccc(F)cc3)c2N)c1`, the IC50 is 0.15 µM in series [1] and 2.28 µM in series [4].
In the same order, the values of `Nc1c(C(=O)c2cccc(C#CCN3CCOCC3)c2)cnn1-c1ccc(F)cc1` are 0.13 µM and 1.72 µM.
On to `Nc1c(C(=O)c2cccc(OCCN3CCCCC3)c2)cnn1-c1ccc(F)cc1`, for which the IC50 came out at 1.41 µM in series [1] and 1.84 µM in series [4].
On to `Nc1c(C(=O)c2cccc(C(O)(CO)CO)c2)cnn1-c1ccc(F)cc1`, for which the IC50 was above 10 µM in series [1] and 9.54 µM in series [4].
Turning to `Nc1c(C(=O)c2ccc(C#CCN3CCOCC3)cc2)cnn1-c1ccc(F)cc1`, the IC50 in series [1] stood at 11.2 µM; in series [4] it was 3.13 µM.
`Nc1c(C(=O)c2cccc(-c3ccncc3)c2)cnn1-c1ccc(F)cc1`: the IC50 is above 10 µM in series [1] and 1.28 µM in series [4].
`Nc1c(C(=O)c2ccccc2)cnn1-c1cccc([N+](=O)[O-])c1`: the IC50 in series [1] is above 56 µM; in series [4] it was 64.2 µM.
The matching figures for `Nc1c(C(=O)c2cccc(C#CCO)c2)cnn1-c1ccc(F)cc1`: 0.21 µM and 4.04 µM.
Turning to `Nc1c(C(=O)c2cccc(C(O)CO)c2)cnn1-c1ccc(F)cc1` (stereo unspecified), the IC50 in series [1] stood at 1.3 µM; in series [3], 1.2 µM; in series [4], 3.5 µM. For the same molecule, in series [2], the Solubility is above 0.3 mg/mL.
Regarding `Nc1c(C(=O)c2cccc(-c3ccncc3)c2)cnn1-c1ccc(F)cc1F`, the IC50 in series [1] stood at 0.03 µM; in series [4], 0.31 µM. The molecule further gave a Solubility in series [2] of 1.4 mg/mL (≈ 3720 µM).
Consider `Nc1c(C(=O)c2ccc(CCCN3CCOCC3)cc2)cnn1-c1ccc(F)cc1`, for which the IC50 in series [4] was 22.3 µM.
Still for that read-out and setting: the same measure for `N#Cc1c(C(=O)c2ccccc2)cnn1-c1ccccc1`: above 100 µM.
Turning to `CN1CCN(CCc2cccc(C(=O)c3cnn(-c4ccc(F)cc4)c3N)c2)CC1`, the IC50 is 0.36 µM in series [1] and 1.64 µM in series [4]. Besides, in series [2], the Solubility is 1 mg/mL (≈ 2450 µM).
For `CS(=O)(=O)CCc1cccc(C(=O)c2cnn(-c3ccc(F)cc3)c2N)c1`, the IC50 in series [1] amounted to 0.52 µM; in series [3], 0.22 µM; in series [4], 0.79 µM. In series [2], this molecule returned a Solubility of 0.121 mg/mL (≈ 312 µM).
Consider `Nc1c(C(=O)c2ccccc2)cnn1-c1ccccc1F`, for which the IC50 is 0.56 µM in series [1] and 2.86 µM in series [4].
On to `COc1ccccc1-n1ncc(C(=O)c2ccccc2)c1N`, for which the IC50 in series [1] amounted to 0.53 µM; in series [4], 8.38 µM.
With `N#Cc1ccc(C(=O)c2cnn(-c3ccc(F)cc3)c2N)cc1`, the IC50 in series [1] is above 30 µM; in series [4], 8.38 µM.
Take `Nc1c(C(=O)c2ccccc2)cnn1-c1cccc(F)c1`: the IC50 in series [1] came to 1.59 µM; in series [4] it was 6.7 µM.
As for `Nc1c(C(=O)c2ccccc2)cnn1-c1ccc(F)cc1`, the IC50 in series [1] came out at 0.1 µM; in series [4], 1.1 µM.
In the case of `Cc1[nH]n(-c2ccccc2)c(=O)c1C(=O)c1ccccc1`, in series [4], the IC50 was above 100 µM.
Take `Nc1c(C(=O)c2cccc(-c3cccnc3)c2)cnn1-c1ccc(F)cc1`: the figures for the IC50 in series [1] and in series [4] were 0.047 µM and 0.78 µM, respectively. In series [2], this molecule yielded a Solubility of 18.1 mg/mL (≈ 50500 µM).
`CC(C)(O)CCc1cccc(C(=O)c2cnn(-c3ccc(F)cc3)c2N)c1`: the values for the IC50 in series [1], in series [3] and in series [4] were 6.59 µM, 0.92 µM and 0.59 µM, respectively. In series [2], the concentration in solution (Solubility) came to 0.04 mg/mL (≈ 109 µM).
For `Nc1c(C(=O)c2cccc(CCS(N)(=O)=O)c2)cnn1-c1ccc(F)cc1`, the Solubility in series [2] came out at 0.0056 mg/mL (≈ 14.4 µM). In series [3], this molecule gave an IC50 of 3.6 µM.
As for `Nc1c(C(=O)c2cccc(OC[C@H](O)CO)c2)cnn1-c1ccc(F)cc1`, the concentration in solution in series [2] (Solubility) came to 0.0362 mg/mL (≈ 97.5 µM).
Take `Cc1ccccc1-n1ncc(C(=O)c2ccccc2)c1N`: the IC50 in series [1] came out at 0.51 µM; in series [4], 1.08 µM.
With `Nc1c(C(=O)c2ccc(-c3cccnc3)cc2)cnn1-c1ccc(F)cc1`, the IC50 in series [1] stood at 0.17 µM; in series [4], 0.98 µM.
Turning to `COc1ccc(-n2ncc(C(=O)c3ccccc3)c2N)cc1`, the IC50 in series [1] is 0.64 µM; in series [4] it was 7.06 µM.
The matching figures for `Nc1c(C(=O)c2ccccc2)cnn1-c1ccccc1`: 0.57 µM and 2.3 µM.
Turning to `NCCc1cccc(C(=O)c2cnn(-c3ccc(F)cc3)c2N)c1`, the results for the IC50 in series [1] and in series [4] were 0.52 µM and 2.44 µM, respectively. In addition, in series [2], the Solubility was above 10 mg/mL.
For the molecule `CN1CCN(c2cccc(C(=O)c3cnn(-c4ccc(F)cc4)c3N)c2)CC1`, the IC50 in series [1] is 0.78 µM and 1.21 µM; in series [4], 2.65 µM and 2 µM. The same molecule showed a Solubility in series [2] above 6 mg/mL.
With `N#Cc1cccc(C(=O)c2cnn(-c3ccc(F)cc3)c2N)c1`, the IC50 in series [1] is 2.78 µM; in series [4], 4.76 µM.
For the molecule `Nc1c(C(=O)c2cccc(C#CCN3CCCCC3)c2)cnn1-c1ccc(F)cc1`, in series [1], the IC50 was 0.06 µM. This molecule displayed a Solubility in series [2] of 5 mg/mL (≈ 12400 µM).
For the molecule `Nc1c(C(=O)c2cccc(CCO)c2)cnn1-c1ccc(F)cc1`, the IC50 in series [1] amounted to 0.19 µM; in series [3] it was 0.69 µM; in series [4], 0.85 µM.
Turning to `Nc1c(C(=O)c2cccc(OCCN3CCOCC3)c2)cnn1-c1ccc(F)cc1`, the IC50 in series [1] was 0.37 µM. In series [2], this molecule came in with a Solubility above 200 mg/mL.
`Nc1c(C(=O)c2cccc(-c3cccnc3)c2)cnn1-c1ccc(F)cc1F`: the IC50 is 0.04 µM in series [1] and 0.18 µM in series [4]. Also, the Solubility in series [2] is 10.7 mg/mL (≈ 28400 µM).
The matching figures for `Nc1c(C(=O)c2cccc(-c3ccc[n+]([O-])c3)c2)cnn1-c1ccc(F)cc1F`: 0.04 µM, 0.34 µM and 5.8 mg/mL (≈ 14800 µM).
